According to ChEMBL document CHEMBL4396905, “Design, synthesis and in vitro evaluation of 6-amide-2-aryl benzoxazole/benzimidazole derivatives against tumor cells by inhibiting VEGFR-2 kinase” (Eur J Med Chem, 2019):

Each compound was assayed against T1, Vascular endothelial growth factor receptor 2 (Homo sapiens, UniProt P35968) (assay: Inhibition of VEGFR2 (unknown origin) using Poly (Glu, Tyr) 4:1 as substrate preincubated with substrate followed by enzyme challenge for 1 hr by ELISA). Details: not given.
T1 sequence (P35968 whole entry): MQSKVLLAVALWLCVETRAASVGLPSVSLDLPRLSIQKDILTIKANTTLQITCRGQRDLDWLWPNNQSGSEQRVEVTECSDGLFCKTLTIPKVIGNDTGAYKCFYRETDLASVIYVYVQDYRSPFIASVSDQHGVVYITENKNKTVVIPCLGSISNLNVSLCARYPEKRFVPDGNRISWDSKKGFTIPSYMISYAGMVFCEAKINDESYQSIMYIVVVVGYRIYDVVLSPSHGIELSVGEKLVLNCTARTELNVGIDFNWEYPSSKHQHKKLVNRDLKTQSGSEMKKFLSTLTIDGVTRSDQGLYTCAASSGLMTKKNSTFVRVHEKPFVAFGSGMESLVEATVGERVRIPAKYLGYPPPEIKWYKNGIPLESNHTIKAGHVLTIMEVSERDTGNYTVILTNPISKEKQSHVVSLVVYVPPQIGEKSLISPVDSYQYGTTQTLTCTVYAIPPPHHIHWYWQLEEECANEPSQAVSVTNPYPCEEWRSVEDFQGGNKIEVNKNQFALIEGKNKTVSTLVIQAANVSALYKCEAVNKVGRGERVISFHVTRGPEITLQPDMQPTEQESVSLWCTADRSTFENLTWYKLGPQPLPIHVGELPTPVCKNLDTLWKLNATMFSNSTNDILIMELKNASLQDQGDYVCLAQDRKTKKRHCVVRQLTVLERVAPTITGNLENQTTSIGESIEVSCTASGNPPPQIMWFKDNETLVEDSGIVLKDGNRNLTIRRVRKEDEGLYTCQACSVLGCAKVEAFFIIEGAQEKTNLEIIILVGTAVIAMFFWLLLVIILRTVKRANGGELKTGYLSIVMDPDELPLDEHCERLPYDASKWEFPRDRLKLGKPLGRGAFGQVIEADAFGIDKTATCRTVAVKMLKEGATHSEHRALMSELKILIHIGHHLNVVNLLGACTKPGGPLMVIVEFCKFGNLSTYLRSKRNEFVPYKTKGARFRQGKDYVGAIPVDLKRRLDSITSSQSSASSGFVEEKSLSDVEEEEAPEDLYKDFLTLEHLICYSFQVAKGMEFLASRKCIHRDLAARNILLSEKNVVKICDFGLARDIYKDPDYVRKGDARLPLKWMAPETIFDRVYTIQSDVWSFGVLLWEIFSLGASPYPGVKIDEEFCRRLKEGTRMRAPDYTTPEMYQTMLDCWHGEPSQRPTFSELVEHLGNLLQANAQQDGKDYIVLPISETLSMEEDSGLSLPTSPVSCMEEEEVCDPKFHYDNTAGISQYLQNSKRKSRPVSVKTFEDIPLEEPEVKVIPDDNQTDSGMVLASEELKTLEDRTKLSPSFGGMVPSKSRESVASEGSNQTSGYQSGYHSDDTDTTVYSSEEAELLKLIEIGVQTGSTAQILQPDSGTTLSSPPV

IC50 [µM]	Compound
0.166	COc1ccc(CC(=O)Nc2ccc3oc(-c4ccccc4F)nc3c2)cc1

What follows are compounds tested against Epidermal growth factor receptor (Homo sapiens) (UniProt P00533) (assay: Inhibition of EGFR (unknown origin) using Poly (Glu, Tyr) 4:1 as substrate at 1 uM preincubated with substrate followed by enzyme challenge for 1 hr by ELISA relative to control). Details: not given.
Epidermal growth factor receptor (Homo sapiens), sequence (P00533 whole entry): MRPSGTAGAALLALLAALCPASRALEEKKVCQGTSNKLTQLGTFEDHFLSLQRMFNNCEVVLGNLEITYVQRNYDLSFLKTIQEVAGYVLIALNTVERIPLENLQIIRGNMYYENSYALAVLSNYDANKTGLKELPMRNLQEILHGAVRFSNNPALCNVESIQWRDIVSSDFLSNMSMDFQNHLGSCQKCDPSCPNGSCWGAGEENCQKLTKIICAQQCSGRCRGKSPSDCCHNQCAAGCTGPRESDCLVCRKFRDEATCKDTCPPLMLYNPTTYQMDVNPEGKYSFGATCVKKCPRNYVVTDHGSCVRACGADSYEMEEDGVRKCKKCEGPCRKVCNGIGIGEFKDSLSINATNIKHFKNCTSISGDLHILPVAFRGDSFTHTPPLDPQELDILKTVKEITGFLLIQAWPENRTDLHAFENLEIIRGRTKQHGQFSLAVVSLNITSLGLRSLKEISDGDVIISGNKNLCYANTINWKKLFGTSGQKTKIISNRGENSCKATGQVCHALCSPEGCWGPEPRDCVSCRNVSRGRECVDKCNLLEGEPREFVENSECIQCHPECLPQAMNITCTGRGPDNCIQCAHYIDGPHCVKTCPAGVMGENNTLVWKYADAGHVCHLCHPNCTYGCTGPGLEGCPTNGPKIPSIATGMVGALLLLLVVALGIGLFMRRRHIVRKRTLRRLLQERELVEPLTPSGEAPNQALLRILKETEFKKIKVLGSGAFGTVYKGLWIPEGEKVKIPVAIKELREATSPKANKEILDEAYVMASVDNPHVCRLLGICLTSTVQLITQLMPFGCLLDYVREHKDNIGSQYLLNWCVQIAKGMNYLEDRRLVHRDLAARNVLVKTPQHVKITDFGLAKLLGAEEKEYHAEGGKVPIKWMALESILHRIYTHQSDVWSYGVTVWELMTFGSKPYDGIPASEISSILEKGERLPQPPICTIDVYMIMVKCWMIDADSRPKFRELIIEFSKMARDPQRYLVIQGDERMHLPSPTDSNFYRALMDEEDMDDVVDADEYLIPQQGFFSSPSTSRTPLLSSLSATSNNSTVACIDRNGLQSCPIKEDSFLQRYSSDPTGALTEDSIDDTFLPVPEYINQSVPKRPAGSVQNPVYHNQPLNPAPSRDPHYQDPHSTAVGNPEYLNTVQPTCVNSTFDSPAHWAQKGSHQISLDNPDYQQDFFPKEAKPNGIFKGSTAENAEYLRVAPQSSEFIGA

inhibition [%]	Compound
42.8	COc1ccc(CC(=O)Nc2ccc3oc(-c4ccccc4F)nc3c2)cc1

The compounds below were run on HUVEC (assay: Antiproliferative activity against human HUVEC cells expressing VEGFR2 assessed as reduction in cell growth incubated for 48 hrs by MTT assay). Details: not given.
Assay type: functional, cell-based

Compound	IC50 [µM]
COc1ccc(CC(=O)Nc2ccc3oc(-c4ccccc4F)nc3c2)cc1	14.2

Each compound was assayed on HepG2 (assay: Antiproliferative activity against human HepG2 cells expressing VEGFR2 assessed as reduction in cell growth incubated for 48 hrs by MTT assay). Details: HepG2, 48 h.
Assay type: functional, cell-based

IC50 [µM]	Compound
37.3	COc1ccc(CC(=O)Nc2ccc3oc(-c4ccccc4F)nc3c2)cc1

What follows are compounds tested on A549 (assay: Antiproliferative activity against human A549 cells expressing EGFR assessed as reduction in cell growth incubated for 48 hrs by MTT assay). Details: A549, 48 h.
Assay type: functional, cell-based

IC50 [µM]	Compound
> 100	COc1ccc(CC(=O)Nc2ccc3oc(-c4ccccc4F)nc3c2)cc1

These compounds were tested on MDA-MB-231 (assay: Antiproliferative activity against human MDA-MB-231 cells expressing EGFR assessed as reduction in cell growth incubated for 48 hrs by MTT assay). Details: MDA-MB-231, 48 h.
Assay type: functional, cell-based

IC50 [µM]	Compound
> 100	COc1ccc(CC(=O)Nc2ccc3oc(-c4ccccc4F)nc3c2)cc1

Each compound was assayed against T1, Vascular endothelial growth factor receptor 2. Details: at 1 µM.
Description: Inhibition of VEGFR2 (unknown origin) using Poly (Glu, Tyr) 4:1 as substrate at 1 uM preincubated with substrate followed by enzyme challenge for 1 hr by ELISA relative to control

inhibition [%]	Compound
94.6	COc1ccc(CC(=O)Nc2ccc3oc(-c4ccccc4F)nc3c2)cc1
